We go through 22 compounds from patent US12358885B2, “Substituted n-propylamine fused heterocyclic mescaline derivatives” (Enveric Biosciences Canada Inc., priority 2022, dated 2025).

Test [1] deals with T1, 5-HT1A receptor (Homo sapiens, UniProt P08908).
T1 construct: purchased Perkin Elmer 6110501400UA
T1 sequence (P08908 1-422): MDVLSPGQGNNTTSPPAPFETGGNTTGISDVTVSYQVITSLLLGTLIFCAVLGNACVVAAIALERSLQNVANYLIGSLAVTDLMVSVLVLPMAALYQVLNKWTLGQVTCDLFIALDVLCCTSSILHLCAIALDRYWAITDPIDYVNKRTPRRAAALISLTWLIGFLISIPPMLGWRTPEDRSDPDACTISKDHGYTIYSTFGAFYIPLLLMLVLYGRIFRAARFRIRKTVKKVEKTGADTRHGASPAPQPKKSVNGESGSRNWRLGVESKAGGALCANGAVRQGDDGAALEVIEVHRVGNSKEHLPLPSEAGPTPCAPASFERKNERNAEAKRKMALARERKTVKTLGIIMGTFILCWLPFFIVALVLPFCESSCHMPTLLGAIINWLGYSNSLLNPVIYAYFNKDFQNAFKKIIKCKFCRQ
The test can be described thus: 5-HT1A receptor radioligand competition assay (SPA, 8-hydroxy-DPAT [3H]). Type of test: binding. Conditions: 0.5 nM hot 8-hydroxy-DPAT, membranes containing 5-HT1A.

For the next test, the target named is T2, 5-HT2A receptor (Homo sapiens, UniProt P28223).
T2 construct: host or cells: HEK-293 cells (membrane preparation)
T2 sequence (P28223 whole entry): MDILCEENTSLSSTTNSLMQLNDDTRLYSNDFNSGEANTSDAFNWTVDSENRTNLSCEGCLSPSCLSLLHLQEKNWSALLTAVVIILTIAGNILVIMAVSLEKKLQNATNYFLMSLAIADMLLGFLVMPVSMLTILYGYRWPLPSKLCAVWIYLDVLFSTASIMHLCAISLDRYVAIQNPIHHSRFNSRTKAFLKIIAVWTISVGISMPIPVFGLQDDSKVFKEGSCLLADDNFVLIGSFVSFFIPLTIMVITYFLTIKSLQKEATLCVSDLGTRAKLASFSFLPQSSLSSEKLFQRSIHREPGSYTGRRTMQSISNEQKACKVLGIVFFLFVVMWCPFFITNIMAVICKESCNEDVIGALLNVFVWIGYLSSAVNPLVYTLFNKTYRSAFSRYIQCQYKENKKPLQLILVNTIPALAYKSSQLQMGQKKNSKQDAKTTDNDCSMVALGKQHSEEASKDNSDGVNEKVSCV
The test can be described thus: biochemical. Type of test: binding. Conditions: for inhibition at 10 µM: read-out: HT2A, percent of control-specific binding.

The target in a further test is T3, alpha2A receptor (Homo sapiens, UniProt P08913).
T3 construct: host or cells: CHO cells (membrane preparation)
T3 sequence (P08913 1-465): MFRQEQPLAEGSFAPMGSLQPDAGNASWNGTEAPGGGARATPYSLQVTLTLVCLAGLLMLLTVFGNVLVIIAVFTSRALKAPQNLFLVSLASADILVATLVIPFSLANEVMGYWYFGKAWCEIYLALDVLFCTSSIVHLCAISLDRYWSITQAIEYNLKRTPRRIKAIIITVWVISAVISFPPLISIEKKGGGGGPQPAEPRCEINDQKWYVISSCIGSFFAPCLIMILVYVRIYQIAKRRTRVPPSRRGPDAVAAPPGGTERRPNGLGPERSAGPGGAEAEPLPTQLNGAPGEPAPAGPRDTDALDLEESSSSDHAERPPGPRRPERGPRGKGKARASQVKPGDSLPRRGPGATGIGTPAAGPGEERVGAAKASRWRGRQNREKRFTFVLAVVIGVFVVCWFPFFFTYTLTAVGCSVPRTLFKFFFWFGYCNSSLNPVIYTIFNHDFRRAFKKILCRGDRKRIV
The test can be described thus: Eurofins Cerep competition binding assay at alpha2A receptor. Conditions: 10 μM test ligand; [3H]RX 821002; recombinant receptor in CHO cells.

Another test addresses T4, D3 receptor (Homo sapiens, UniProt P35462).
T4 construct: host or cells: CHO cells (membrane preparation)
The test is described as follows: Eurofins Cerep competition binding assay at D3 receptor. Conditions: 10 μM test ligand, [3H]methylspiperone, recombinant receptor in CHO cells; for inhibition at 10 µM: read-out: D3, percent of control-specific binding.

Test [2] addresses T1, 5-HT1A receptor. The test is described as follows: Eurofins Cerep competition binding assay at 5-HT1A receptor. Conditions: 10 μM test ligand, [3H]8-OH-DPAT, recombinant receptor in HEK-293 cells; for inhibition at 10 µM: read-out: HT1A, percent of control-specific binding.
A further test has as its target T5, 5-HT2B receptor (Homo sapiens, UniProt P41595).
T5 construct: host or cells: CHO cells (membrane preparation)
The test can be described thus: Eurofins Cerep competition binding assay at 5-HT2B receptor. Conditions: 10 μM test ligand, [3H]mesulergine, recombinant receptor in CHO cells; for inhibition at 10 µM: read-out: HT2B, percent of control-specific binding.

The target in a further test is T6, 5-HT2C receptor (Homo sapiens, UniProt P28335).
T6 construct: host or cells: HEK-293 cells (membrane preparation)
T6 sequence (P28335 33-458): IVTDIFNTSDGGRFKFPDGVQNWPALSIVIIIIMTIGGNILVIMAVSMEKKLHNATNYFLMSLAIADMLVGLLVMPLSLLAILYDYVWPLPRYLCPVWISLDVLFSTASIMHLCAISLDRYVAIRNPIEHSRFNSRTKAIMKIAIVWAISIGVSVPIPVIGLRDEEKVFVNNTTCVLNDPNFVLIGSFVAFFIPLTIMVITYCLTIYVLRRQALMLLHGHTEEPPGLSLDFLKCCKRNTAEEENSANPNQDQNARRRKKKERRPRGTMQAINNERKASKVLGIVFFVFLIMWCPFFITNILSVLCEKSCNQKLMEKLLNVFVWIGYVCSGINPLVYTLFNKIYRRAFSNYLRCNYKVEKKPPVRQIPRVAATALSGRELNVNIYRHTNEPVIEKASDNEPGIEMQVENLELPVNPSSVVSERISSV
The test is described as follows: Eurofins Cerep competition binding assay at 5-HT2C receptor. Conditions: 10 μM test ligand; [125I](±)DOI; recombinant receptor in HEK-293 cells; read-out: HT2C, percent of control-specific binding.

The target of the next test is T7, 5-HT7 receptor (Homo sapiens, UniProt P34969).
T7 construct: host or cells: HEK-293 cells (membrane preparation)
T7 sequence (P34969 whole entry): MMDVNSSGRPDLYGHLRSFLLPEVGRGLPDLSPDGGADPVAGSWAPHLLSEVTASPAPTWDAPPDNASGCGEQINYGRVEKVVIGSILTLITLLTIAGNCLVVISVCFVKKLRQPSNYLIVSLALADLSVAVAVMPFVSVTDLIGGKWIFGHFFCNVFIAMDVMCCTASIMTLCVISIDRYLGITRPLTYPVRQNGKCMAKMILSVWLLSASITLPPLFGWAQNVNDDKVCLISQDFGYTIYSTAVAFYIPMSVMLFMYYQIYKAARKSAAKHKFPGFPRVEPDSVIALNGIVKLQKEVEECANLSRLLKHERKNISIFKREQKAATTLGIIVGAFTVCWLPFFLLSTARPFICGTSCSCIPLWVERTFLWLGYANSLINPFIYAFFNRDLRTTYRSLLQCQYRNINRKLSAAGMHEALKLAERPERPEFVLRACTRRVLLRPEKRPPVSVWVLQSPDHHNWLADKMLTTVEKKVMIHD
The test is described as follows: Eurofins Cerep competition binding assay at 5-HT7 receptor. Conditions: 10 μM test ligand, [3H]LSD, recombinant receptor in HEK-293 cells; for inhibition at 10 µM: read-out: HT7, percent of control-specific binding.

In test [3] the target is T8, serotonin transporter (SERT) (Homo sapiens, UniProt P31645).
T8 construct: host or cells: CHO cells (membrane preparation)
T8 sequence (P31645 whole entry): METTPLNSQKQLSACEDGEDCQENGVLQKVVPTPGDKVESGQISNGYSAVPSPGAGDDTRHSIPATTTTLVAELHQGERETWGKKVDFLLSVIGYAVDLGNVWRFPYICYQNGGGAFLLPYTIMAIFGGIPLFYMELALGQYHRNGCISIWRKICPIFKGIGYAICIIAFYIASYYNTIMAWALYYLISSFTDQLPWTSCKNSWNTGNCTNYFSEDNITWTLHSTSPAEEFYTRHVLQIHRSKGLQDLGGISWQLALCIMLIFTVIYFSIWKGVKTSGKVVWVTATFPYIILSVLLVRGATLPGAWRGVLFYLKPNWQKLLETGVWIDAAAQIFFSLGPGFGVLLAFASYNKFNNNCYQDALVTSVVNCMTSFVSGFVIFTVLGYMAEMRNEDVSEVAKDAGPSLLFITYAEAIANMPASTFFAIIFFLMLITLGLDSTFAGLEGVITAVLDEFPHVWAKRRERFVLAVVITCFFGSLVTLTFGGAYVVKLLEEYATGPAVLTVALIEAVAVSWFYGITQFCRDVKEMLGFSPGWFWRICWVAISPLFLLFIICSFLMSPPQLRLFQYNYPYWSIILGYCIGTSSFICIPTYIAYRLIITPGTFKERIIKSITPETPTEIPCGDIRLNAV
The test can be described thus: biochemical. Type of test: binding. Conditions: for inhibition at 10 µM: read-out: SERT, percent of control-specific binding.

Test [4] deals with T9, dopamine transporter (DAT) (Homo sapiens, UniProt Q01959).
T9 construct: host or cells: CHO cells (membrane preparation)
T9 sequence (Q01959 whole entry): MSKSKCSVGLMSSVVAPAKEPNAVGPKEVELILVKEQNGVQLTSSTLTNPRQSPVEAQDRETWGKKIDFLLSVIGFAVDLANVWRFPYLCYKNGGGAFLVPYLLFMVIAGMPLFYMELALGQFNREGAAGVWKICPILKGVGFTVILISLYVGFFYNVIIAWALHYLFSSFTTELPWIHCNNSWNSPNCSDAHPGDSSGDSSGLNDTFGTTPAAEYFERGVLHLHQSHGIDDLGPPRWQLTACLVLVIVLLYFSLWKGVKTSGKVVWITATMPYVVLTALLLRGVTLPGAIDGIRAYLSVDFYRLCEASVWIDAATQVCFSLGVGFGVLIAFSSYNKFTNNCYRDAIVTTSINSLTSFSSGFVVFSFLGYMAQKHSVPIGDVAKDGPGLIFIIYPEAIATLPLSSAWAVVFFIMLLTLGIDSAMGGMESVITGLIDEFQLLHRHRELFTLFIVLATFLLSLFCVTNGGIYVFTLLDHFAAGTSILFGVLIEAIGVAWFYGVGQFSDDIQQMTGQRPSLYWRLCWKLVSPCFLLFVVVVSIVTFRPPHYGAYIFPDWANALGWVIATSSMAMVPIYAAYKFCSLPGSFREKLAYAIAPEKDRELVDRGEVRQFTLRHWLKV
The test is described as follows: Eurofins Cerep competition binding assay at dopamine transporter. Conditions: for inhibition at 10 µM: read-out: DAT, percent of control-specific binding.

A further test has as its target T10, MT1 receptor (Homo sapiens, UniProt P48039).
T10 construct: host or cells: CHO cells (membrane preparation)
The test can be described thus: Eurofins Cerep competition binding assay at MT1 receptor. Conditions: for inhibition at 10 µM: read-out: MT1, percent of control-specific binding.

In test [5] the target is T11, norepinephrine transporter (NET) (Homo sapiens, UniProt P23975).
T11 construct: host or cells: CHO cells (membrane preparation)
T11 sequence (P23975 whole entry): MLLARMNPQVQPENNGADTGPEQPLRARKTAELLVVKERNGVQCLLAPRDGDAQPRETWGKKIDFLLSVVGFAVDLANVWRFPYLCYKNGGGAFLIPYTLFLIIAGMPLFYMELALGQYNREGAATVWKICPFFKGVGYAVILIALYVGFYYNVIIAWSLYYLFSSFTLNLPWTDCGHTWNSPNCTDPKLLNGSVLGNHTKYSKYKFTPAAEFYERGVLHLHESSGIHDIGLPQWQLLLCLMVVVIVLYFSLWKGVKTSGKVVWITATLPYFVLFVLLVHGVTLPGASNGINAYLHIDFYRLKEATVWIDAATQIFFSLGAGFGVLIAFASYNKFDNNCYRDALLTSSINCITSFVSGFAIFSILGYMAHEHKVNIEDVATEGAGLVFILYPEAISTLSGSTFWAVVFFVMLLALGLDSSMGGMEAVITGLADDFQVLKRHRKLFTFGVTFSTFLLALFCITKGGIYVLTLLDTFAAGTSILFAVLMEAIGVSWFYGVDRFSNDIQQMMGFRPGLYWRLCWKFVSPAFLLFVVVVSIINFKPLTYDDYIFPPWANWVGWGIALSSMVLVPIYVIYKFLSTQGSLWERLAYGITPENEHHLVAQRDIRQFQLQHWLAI
The test is described as follows: Eurofins Cerep competition binding assay at norepinephrine transporter. Conditions: for inhibition at 10 µM: read-out: NET, percent of control-specific binding.

Test [6] deals with T1, 5-HT1A receptor. The test can be described thus: Functional 5-HT1A receptor cAMP assay in CHO-K1/5-HT1A/Gα15 cells. Type of test: cell-based.
[7] abbreviates: 10 μM test molecule, [125I](±)DOI, recombinant receptor in HEK-293 cells.

Like-named read-outs stand apart in the source and are kept apart here.

T4 sequence (P35462 whole entry): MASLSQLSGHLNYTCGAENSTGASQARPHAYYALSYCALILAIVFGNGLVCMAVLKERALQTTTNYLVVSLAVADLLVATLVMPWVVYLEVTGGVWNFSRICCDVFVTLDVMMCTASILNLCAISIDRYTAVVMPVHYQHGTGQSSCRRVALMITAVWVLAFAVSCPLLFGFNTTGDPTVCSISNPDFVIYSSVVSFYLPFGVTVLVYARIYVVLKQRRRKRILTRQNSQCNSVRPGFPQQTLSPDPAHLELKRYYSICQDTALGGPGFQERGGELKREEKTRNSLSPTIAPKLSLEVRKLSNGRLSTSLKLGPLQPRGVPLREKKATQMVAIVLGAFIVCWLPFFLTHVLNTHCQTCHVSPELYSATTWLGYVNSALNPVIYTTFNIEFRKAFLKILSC
T5 sequence (P41595 whole entry): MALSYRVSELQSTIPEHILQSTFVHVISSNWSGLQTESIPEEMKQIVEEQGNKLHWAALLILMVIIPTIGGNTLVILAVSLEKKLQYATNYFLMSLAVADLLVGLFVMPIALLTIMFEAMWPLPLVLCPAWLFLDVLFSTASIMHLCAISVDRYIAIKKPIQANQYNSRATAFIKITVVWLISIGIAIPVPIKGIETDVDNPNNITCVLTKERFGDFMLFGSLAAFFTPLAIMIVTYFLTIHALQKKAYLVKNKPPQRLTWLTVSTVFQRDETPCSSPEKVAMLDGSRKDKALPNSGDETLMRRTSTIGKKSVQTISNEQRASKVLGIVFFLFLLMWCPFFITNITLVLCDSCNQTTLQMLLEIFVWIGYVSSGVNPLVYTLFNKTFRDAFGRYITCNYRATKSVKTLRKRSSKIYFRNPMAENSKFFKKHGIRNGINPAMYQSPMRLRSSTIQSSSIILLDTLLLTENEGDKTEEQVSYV
T10 sequence (P48039 whole entry): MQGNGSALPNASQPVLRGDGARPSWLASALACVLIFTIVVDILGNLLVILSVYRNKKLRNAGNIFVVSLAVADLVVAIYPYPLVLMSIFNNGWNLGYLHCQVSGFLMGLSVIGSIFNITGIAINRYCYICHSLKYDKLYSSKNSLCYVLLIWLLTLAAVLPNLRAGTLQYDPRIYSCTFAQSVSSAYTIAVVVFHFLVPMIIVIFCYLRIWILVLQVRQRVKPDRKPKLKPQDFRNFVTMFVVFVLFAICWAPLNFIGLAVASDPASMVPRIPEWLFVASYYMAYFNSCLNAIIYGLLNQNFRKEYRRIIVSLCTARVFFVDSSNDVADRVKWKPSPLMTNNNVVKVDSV

For `CC(Cc1ccc2c(c1)OCO2)CN1CCCC1` (racemic) [A(II)], on 5-HT1A receptor [1], the affinity corresponds to a Ki of 8 µM.

For the compound `COc1ccc2cccc(CCNC(C)=O)c2c1` [Agomelatine], the inhibition at 10 µM was found to be 61% on 5-HT2A receptor (setting [7]) and 6% on D3 receptor. Also, the “α-2A, percent of control-specific binding” value (from here on “α-2A, percent”) at alpha2A receptor is on record as 2%.

Take `CC(NC(C)(C)C)C(=O)c1cccc(Cl)c1` (centres unmarked) [Bupropion]: the “α-2A, percent” value on alpha2A receptor is reported as 2%. Besides, at D3 receptor, the inhibition at 10 µM came out at 3%.

For `CCN(CC)CCCc1ccc2c(c1)OCO2` [C(I)], the Ki at 5-HT1A receptor [1] turned out to be 2.9 µM.

`c1cc2c(cc1CCCN1CCCC1)OCO2` [C(III)] yielded a Ki at 5-HT1A receptor [1] of 2.33 µM. Moreover, the inhibition at 10 µM on 5-HT1A receptor [2] was determined as 72%; at 5-HT2A receptor (setting [7]) it was 37%; on 5-HT2B receptor, 47%; at 5-HT2C receptor, 33%; on 5-HT7 receptor it was 15%; at D3 receptor it was 22%. Moreover, the inhibition at 10 µM is 19% in test [3], 27% in test [4], 3% on MT1 receptor and 3% in test [5]. Also, the “α-2A, percent” value on alpha2A receptor is on record as 36%.

On to `Brc1cc2c(cc1CCCN1CCCC1)OCO2` [C(IV)], for which the affinity at 5-HT1A receptor [1], expressed as Ki, was 0.596 µM. Further, the inhibition at 10 µM is 92% on 5-HT1A receptor [2]; 62% on 5-HT2A receptor (setting [7]); 73% on 5-HT2B receptor; 65% at 5-HT2C receptor; 40% on 5-HT7 receptor; 61% at D3 receptor. The inhibition at 10 µM in test [3] is 31%; in test [4], 10%; on MT1 receptor, 8%; in test [5] it was 0%. For the same compound, the “α-2A, percent” value on alpha2A receptor is reported as 55%.

The compound `COc1cc2c(cc1CCCN1CCCC1)OCO2` [C(V)] registered a Ki on 5-HT1A receptor [1] of 5 µM. At 5-HT1A receptor [6], this compound came in with a half-maximal effective concentration (EC50) of 116 µM.

As to `OCCNCCCc1cc2c(cc1Br)OCO2` [C(XIII)], at 5-HT1A receptor [6], the EC50 was found to be 22.9 µM.

As for `COc1cc(CC(C)N)c(OC)cc1Br` (centres unmarked) [DOB, reference compound], the “HT1A, percent of control-specific binding” value on 5-HT1A receptor [2] is given as 75%. At 5-HT2A receptor (setting [7]), the “HT2A, percent of control-specific binding” value was 100%. The “HT2B, percent of control-specific binding” value on 5-HT2B receptor is listed as 97%. Also, the “HT7, percent of control-specific binding” value on 5-HT7 receptor is recorded as 65%. The “α-2A, percent” value at alpha2A receptor was 66%. The “D3, percent of control-specific binding” value at D3 receptor was found to be 25%. In addition, the “SERT, percent of control-specific binding” value in test [3] (10 µM) worked out at 53%. The “DAT, percent of control-specific binding” value in [4] (10 μM test ligand, [3H]BTCP, recombinant transporter in CHO cells) turned out to be 3%. Also, the “MT1, percent of control-specific binding” value at MT1 receptor (10 μM test ligand, [125I]2-iodomelatonin, recombinant receptor in CHO cells) is −3%. The “NET, percent of control-specific binding” value in [5] (10 μM test ligand, [3H]nisoxetine, recombinant transporter in CHO cells) is given as 6%.

For `CNCC[C@H](Oc1cccc2ccccc12)c1cccs1` [Duloxetine], the inhibition at 10 µM on 5-HT2A receptor was determined as 95%; at D3 receptor it was 66%. Moreover, the “α-2A, percent” value at alpha2A receptor was 54%.

`O=C(CCc1cc2c(cc1Br)OCO2)N1CCCC1` [F(IV)] yielded a Ki at 5-HT1A receptor [1] of 84.5 µM. The inhibition at 10 µM on 5-HT1A receptor [2] came to 37%; at 5-HT2A receptor (setting [7]), 0%; at 5-HT2B receptor it was 26%; on 5-HT2C receptor, 8%; at 5-HT7 receptor, 0%; on D3 receptor, 12%. Moreover, the inhibition at 10 µM came out at 0% in test [3], 0% in test [4], 42% at MT1 receptor and 0% in [5]. For the same compound, on alpha2A receptor, the “α-2A, percent” value is reported as 4%.

As to `COc1cc2c(cc1CCC(=O)N1CCCC1)OCO2` [F(V)], on 5-HT1A receptor [1], the inhibitory constant (Ki) amounted to 364 µM. This compound returned an EC50 on 5-HT1A receptor [6] of 10 µM.

Take `Brc1cc2c(cc1CCC1=NCCO1)OCO2` [G(V)]: the EC50 at 5-HT1A receptor [6] is 130 µM.

Take `CN(C)CCCN1c2ccccc2CCc2ccccc21` [Imipramine]: the inhibition at 10 µM at 5-HT2A receptor (setting [7]) was 97%; at D3 receptor, 92%. Also, at alpha2A receptor, the “α-2A, percent” value was determined as 57%.

Turning to `COc1ccc2[nH]cc(CCNC(C)=O)c2c1` [Melatonin], the “α-2A, percent” value on alpha2A receptor was −7%. Besides, the inhibition at 10 µM on D3 receptor was found to be 2%.

For `O=c1n(CCCN2CCN(c3cccc(Cl)c3)CC2)nc2ccccn12` [Trazodone], the “α-2A, percent” value on alpha2A receptor worked out at 91%. For the same compound, at D3 receptor, the inhibition at 10 µM is 89%.

In the case of `N#Cc1ccc2[nH]cc(CCCCN3CCN(c4ccc5oc(C(N)=O)cc5c4)CC3)c2c1` [Vilazodone], the inhibition at 10 µM was found to be 94% at 5-HT2A receptor (setting [7]) and 99% on D3 receptor. Besides, on alpha2A receptor, the “α-2A, percent” value turned out to be 65%.

In the case of `COc1cc(CCN)cc(OC)c1OC` [mescaline, 3,4,5 trimethoxyphenethylamine], the inhibition at 10 µM was 79% on 5-HT2A receptor (setting [7]) and -13% on D3 receptor. Further, the “α-2A, percent” value on alpha2A receptor amounted to 57%.

`CCCOc1c(OC)cc(CCN)cc1OC` [proscaline]: the inhibition at 10 µM is 91% on 5-HT2A receptor (setting [7]) and 4% at D3 receptor. The “α-2A, percent” value on alpha2A receptor was 40%.

Turning to `NCCc1c[nH]c2ccc(O)cc12` [serotonin], the “α-2A, percent” value on alpha2A receptor worked out at 18%. Further, at D3 receptor, the inhibition at 10 µM was 73%.

`N[C@@H](Cc1c[nH]c2ccccc12)C(=O)O` [tryptophan]: the figures for the inhibition at 10 µM at 5-HT2A receptor (setting [7]) and at D3 receptor were -1% and -23%, respectively. In addition, on alpha2A receptor, the “α-2A, percent” value is on record as −4%.

In the case of `Cc1ccc(Sc2ccccc2N2CCNCC2)c(C)c1` [vortioxetine], the inhibition at 10 µM at 5-HT2A receptor (setting [7]) worked out at 90%; on D3 receptor, 88%. Moreover, the “α-2A, percent” value at alpha2A receptor is on record as 62%.
